Laboratory results taken from patent publication US7091185B2, “Periodic antimicrobial peptides” (Dow Global Technologies Inc., priority 2003, dated 2006).
Read-outs that look alike come from different tables or passages of the source. Where no end group is shown, it is not given here.

Experiments:
HeLa cell line = assay: HeLa MTS cellular reduction toxicity assay; type: cell-based; conditions: for TX50: 24 h, MTS
Method in brief: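 HeLa cells grown 48 h, then exposed to serial 2-fold peptide dilutions for 24 h at 37 °C, 5% CO2. MTS-PMS added for 1 h; absorbance at 490 nm compared with untreated cells. TX50 (50% toxicity concentration) from sigmoidal curve fit.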

P. aeruginosa ATCC 15442 = assay: HMARQ biocidal kill activity; type: cell-based; conditions: P. aeruginosa ATCC 15442 (gram−)
Method in brief: (§1)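 Inoculated sample matrix (200–300 μL) added to biocide in 96-well blocks alongside untreated controls; for kill-time runs organisms added after biocide. Viable counts by MPN serial 1:10 dilution in TSB with 50 μM resazurin indicator; values are ppm (μg/mL) giving 3.5 log kill versus untreated at 15 min or 24 h.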

Staph. aureus ATCC 6538 = assay: HMARQ biocidal kill activity; type: cell-based; conditions: Staph. aureus ATCC 6538 (gram+)
Method in brief: as §1

Cr. Neoformans 32045 = type: cell-based
Method in brief: (§2)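 Broth microdilution per NCCLS, adapted for fungi with Sabouraud Dextrose Broth; KFAK-repeat peptide multimers in two-fold dilutions from 1,000 to 1 μg/ml. Growth by OD620 after overnight incubation; IC50 by sigmoidal fit, in duplicate, repeated at least twice.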

C. albicans 10231 = type: cell-based
Method in brief: as §2

[1] = system: S. aureus (methicillin resistant) ATCC 33591
Red blood cells (RBC) = assay: Red blood cell toxicity; type: cell-based
Red blood cell toxicity = type: cell-based; conditions: red blood cells (RBC); RBCs; concentration required for 50% toxicity; read-out: TX50
[2] = S. aureus (methicillin resistant) 33591, gram+
[3] = Table 3, P aeruginosa 10145, gram−

Sequence	% kill at 500 μg/ml (HeLa cell line) [%]	TX50 (HeLa cell line) [µg/mL]	ppm needed for 3.5 log kill at 15 min (P. aeruginosa ATCC 15442) [ppm]	ppm needed for 3.5 log kill at 24 hr (P. aeruginosa ATCC 15442) [ppm]	ppm needed for 3.5 log kill at 15 min (Staph. aureus ATCC 6538)	ppm needed for 3.5 log kill at 24 hr (Staph. aureus ATCC 6538)	IC50 (Cr. Neoformans 32045) [µg/mL]	MIC (Cr. Neoformans 32045) [µg/mL]	IC50 (C. albicans 10231; 10231) [µg/mL]	MIC (C. albicans 10231; 10231) [µg/mL]	IC50 (E. coli ATCC 2592; ATCC 2592) [µg/mL]	IC50 ([1]; ATCC 33591) [µg/mL]	MIC ([1]; ATCC 33591) [µg/mL]	IC50 (P. aeruginosa ATCC 10145; ATCC 10145) [µg/mL]	MIC (P. aeruginosa ATCC 10145; ATCC 10145) [µg/mL]	% kill at 250 μg/ml (Red blood cells (RBC)) [%]	HC50 at 24 h (Red blood cell toxicity) [µg/mL]	MIC (E. coli ATCC 2592; ATCC 2592) [µg/mL]	also measured
KAAKKAAKKAAKKAAKKAAKKAAKKAAK [KAAK (7), KAAK KAAK KAAK KAAK KAAK KAAK KAAK]	90.0	>500	>500	125	>500 ppm	250 ppm	41	62 to 125	262	>500	261	>500	>500	>250	>250	−6	> 500	–	–
KFAFKFAFKFAFKFAFKFAFKFAFKFAF [KFAF (7), KFAF KFAF KFAF KFAF KFAF KFAF KFAF]	76.8	>500	63	63	>500 ppm	125 ppm	67	125 to 250	>500	>500	>1000	>500	>500	250	>250	4	> 500	>1000	–
KFFKKFFKKFFKKFFKKFFKKFFKKFFK [KFFK (7), KFFK KFFK KFFK KFFK KFFK KFFK KFFK]	−0.5	30	16	8	4 ppm	63 ppm	–	–	–	–	–	–	–	–	–	–	12	–	IC50 (Cr. Neoformans 32045; fungus Cr. Neoformans 32045): 55 µg/mL; MIC (Cr. Neoformans 32045; fungus Cr. Neoformans 32045): 62 to 125 µg/mL; IC50 (C. albicans 10231; yeast C. albicans 10231): 183 µg/mL; MIC (C. albicans 10231; yeast C. albicans 10231): 250 to 500 µg/mL; IC50 (E. coli ATCC 2592; E. coli 2592, gram−): 63 µg/mL; MIC (E. coli ATCC 2592; E. coli 2592, gram−): >125 µg/mL; IC50 [1, 2]: 133 µg/mL; MIC [1, 2]: >250 µg/mL; IC50 (P. aeruginosa ATCC 10145; [3]): 87 µg/mL; MIC (P. aeruginosa ATCC 10145; [3]): 125 µg/mL; % kill at 250 μg/ml (Red blood cells (RBC); RBCs, 250 μg/ml): 100%
KFKKFKKFKKFKKFKKFK [KFK (6), KFK KFK KFK KFK KFK KFK]	77.8	>500	>500	125	>500 ppm	–	33	40 to 62	164	250 to 500	39	322	>500	74	125	−7	> 500	62 to 125	–
KFKKFKKFKKFKKFKKFKKFK [KFK (7), KFK KFK KFK KFK KFK KFK KFK]	80.9	>500	>500	125	>500 ppm	–	26	40 to 62	175	250 to 500	18	141	>500	87	125	−7	> 500	31 to 62	–
KFKKFKKFKKFKKFKKFKKFKKFKKFK [KFK (9), KFK KFK KFK KFK KFK KFK KFK KFK KFK]	80.7	>500	>500	63	>500 ppm	500 ppm	39	62 to 125	194	250 to 500	14	92	125 to 250	68	125	−6	> 500	16 to 32	–
LKKLLKKLLKKLLKKLLKKLLKKL [LKKL (6), LKKL LKKL LKKL LKKL LKKL LKKL]	−1.3	26	>500	8	4 ppm	125 ppm	93	>125	213	250 to 500	31	98	>250	58	65	100	11	62 to 125	–
LKKLLKKLLKKLLKKLLKKLLKKLLKKLLKKL [LKKL (8), LKKL LKKL LKKL LKKL LKKL LKKL LKKL LKKL]	0.1	23	4	8	>500 ppm	125 ppm	56	62 to 125	179	250 to 500	37	80	>250	61	125	100	8	62 to 125	–
LKLKLKLKLKLKLKLKLK [LK (9), LK LK LK LK LK LK LK LK LK]	46.0	137	8	8	16 ppm	4 ppm	4.9	32 to 62	216	250 to 500	35	50	250 to 500	74	80	21	> 500	62 to 125	–
LKLKLKLKLKLKLKLKLKLK [LK (10), LK LK LK LK LK LK LK LK LK LK]	65.0	>500	8	–	16 or less ppm	16 or less ppm	3.0	62 to 125	187	250 to 500	127	29	125 to 250	47	125	27	> 500	150 to 250	–
LRLRLRLRLRLRLR [LR (7), LR LR LR LR LR LR LR]	86.5	>500	>63	4	31 ppm	7.8 ppm	1.8	4 to 8	182	250 to 500	15	–	–	109	125	–	> 500	31 to 62	IC50 [1, 2]: 90 µg/mL; MIC [1, 2]: 250 to 500 µg/mL; % kill at 250 μg/ml (Red blood cells (RBC); RBCs, 250 μg/ml): 15%
LRLRLRLRLRLRLRLRLRLRLR [LR (11), LR LR LR LR LR LR LR LR LR LR LR]	66.6	>500	–	8	16 ppm	8 ppm	3.3	62 to 125	>500	>500	96	39	125 to 250	>250	>250	41	450	125 to 250	–
